Results from patent US20220168198A1, “AN ANTIMICROBIAL MIXTURE” (SYMRISE AG, priority 2019, published 2022).

Key:
S. aureus = assay: MIC determination (agar dilution or broth microdilution), activity against S. aureus; type: cell-based; parameters: unit not given beside the values; conditions: Comparison: MIC values for the actives taken alone
Experimental: (§1) Synergistic activity of mixtures of 4-Isopropyl-3-methylphenol an alpha bisabolol with regard to S. aureus and S. epidermidis was determined. […]
(§2) Antimicrobial activity was evaluated by determining the Minimum Inhibitory Concentration (MIC) representing the lowest concentration of a chemical which prevents visible growth of a bacterium.
(§3) The MIC values were determined by preparing solutions of the chemical in vitro at increasing concentrations, incubating the solutions with the separate batches of cultured bacteria, and measuring the results using agar dilution or broth microdilution. Results have been graded into susceptible (often called sensitive), intermediate, or resistant to a particular antibiotic by using a cutoff point. Cut off points are agreed upon values, published in guidelines of a reference body, such as the U.S. Clinical and Laboratory Standards Institute (CLSI), the British Society for Antimicrobial Chemotherapy (BSAC) or the European Committee on Antimicrobial Susceptibility Testing (EUCAST).

S. epidermitis = assay: MIC determination (agar dilution or broth microdilution), activity against S. epidermitis; type: cell-based; parameters: unit not given beside the values; conditions: Comparison: MIC values for the actives taken alone
Experimental: as §1, §2, §3

[1] = system: mold growth on moist alfalfa hay; conditions: moist alfalfa hay preservation, Agronomy Journal 47, 64-69, 1955; cited from earlier work

| MIC (S. aureus) | MIC (S. epidermitis) | Structure (SMILES) | prevention of mold growth [1] |
| --- | --- | --- | --- |
| 250 | 250 | Cc1cc(O)ccc1C(C)C [4-Isopropyl-3-methylphenol] |  |
|  |  | CC(=O)c1ccc(O)cc1 [4-hydroxyacetophenone] | not prevent mold growth |
| 125 | 125 | CC(C)=CCC[C@](C)(O)[C@@H]1CC=C(C)CC1 [alpha-Bisabolol] |  |
